Experimental data taken from patent publication US9212210B2, “Akt activity specifically inhibiting polypeptide” (Japan Science and Technology Agency, priority 2003, dated 2015).
One block for each substance: values may come before it.

Legend:
Akt kinase [1] = molecular target: Akt kinase (Homo sapiens, UniProt P31749); assay: In vitro kinase assay of TCL1-induced Akt activation; assay type: biochemical; conditions: for Akt kinase activity: dose escalation
Experimental: This was predominantly correlated with Akt Ser-473 phosphorylation levels. […] D16G TCL1 was evaluated by Akt kinase activity.

Akt2 [2] = molecular target: T1, Akt2 (Homo sapiens, UniProt P31751); assay: Yeast two-hybrid screening, β-Gal lifting assay and quantitative liquid β-Gal assay; assay type: cell-based; set-up: expressed in transfected cells; host or cells: yeast Y190 cells (Clontech), lithium acetate method; key to β-Gal lifting assay category of interaction with Akt2: 3 h-positive [++]; 8 h-positive [+]; 24 h-negative [−]; conditions: yeast Y190 cells; for binding to Akt in β-Gal lifting assay and quantitative liquid β-Gal assay: site-directed TCL1 mutants
T1 sequence (P31751 whole entry): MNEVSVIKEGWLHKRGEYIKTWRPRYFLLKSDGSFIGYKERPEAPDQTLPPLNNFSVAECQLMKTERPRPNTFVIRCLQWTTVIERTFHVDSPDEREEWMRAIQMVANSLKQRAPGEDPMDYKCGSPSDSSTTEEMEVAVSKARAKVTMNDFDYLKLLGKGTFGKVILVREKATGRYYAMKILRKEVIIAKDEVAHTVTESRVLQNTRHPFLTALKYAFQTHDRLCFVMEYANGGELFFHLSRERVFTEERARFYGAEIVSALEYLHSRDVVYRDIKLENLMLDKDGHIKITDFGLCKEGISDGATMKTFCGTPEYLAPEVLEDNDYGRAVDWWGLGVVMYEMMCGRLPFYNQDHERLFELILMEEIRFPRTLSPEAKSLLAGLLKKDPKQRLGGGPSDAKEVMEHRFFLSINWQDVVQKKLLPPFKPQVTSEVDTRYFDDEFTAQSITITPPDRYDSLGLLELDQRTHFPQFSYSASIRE
Experimental: Y190 cells (Clontech), by using lithium acetate method; and human Akt2 (Akt2/PAS2-1) and TCL1 random library, in accordance with the previous report (Mol. Cell 6:395-407; Proc. Natl. Acad. Sci. USA 94:11534-11539); were expressed in yeast. In the presence of 3-amino-1,2,4-triazole (SIGMA), around […] clones from cDNA library were screened. β-galactosidase (β-Gal) activity in His+ colony was measured by using filter-lift assay. Yeast clones were classified into clone categories: 3 h-positive [++], 8 h-positive [+], and 24 h-negative [−] by the intensity of β-Gal. Ten clones were selected from the each category for sequencing of the nucleotide.
Y190 cells (Clontech) were expressed in yeast together with TCL1 of wild-type, D16G, K30M, Q46R, 174V, or M106V by using Akt2/PAS2-1, with the use of pGAD424 (Clontech) vector. TCL1 mutant was produced by using PCR-based site-directed mutagenesis and/or Quikchange kit (Stratagene). Liquid β-Gal assay was performed for quantitative determination of binding intensity by using ONPG (O-nitrophenyl-β-D-galactoppyranoside; Sigma) (Mol. Cell 6:395-407). The indicated values were determined by western blotting analysis (GAL4 activation domain antibody [Ab]: Clontech), and normalized by expressing transformant in each yeast.
Next, a yeast two-hybrid screening was performed to examine the interaction of each clone with Akt2. Yeast clones were classified into three categories based on the blue-color intensity expressed in β-Gal lifting assay (β-Gal positive [++] at 3 h, β-Gal positive [+] at 8 h, and negative [−]). Nucleotide sequences of the 10 clones in each category were determined.

[3] = tested on: human T cell leukemia cells (T4); assay: Apoptosis of T4 cells by propidium iodide staining and FACS; assay type: cell-based
Experimental: The effect on apoptosis of 10/24 peptide was examined with the use of human T cell leukemia cells (T4).
10/24 peptide (NH2-AVTDHPDRLWAWEKF-COOH) (SEQ ID NO: 1) was pre-treated at 0-30 μM concentrations with the use of T4 cell lines without stimulation, 48 hours later stained with propidium iodide, and the apoptosis was determined by FACS (Beckton Dickinson). Further, to identify the AKT dependency of the anti-tumor effect, myr-AKT (constitutively activated AKT) was overexpressed.

AKT kinase (unactivated) = molecular target: T2, AKT kinase (unactivated) (Homo sapiens, UniProt P31749); assay: Lipid-protein pull down assay with PIP Beads (PI (3,4,5) P3); assay type: binding; conditions: for binding of PIP Beads (PI (3,4,5) P3) to AKT: 1-400 μM peptide, 50 ng AKT kinase, 2 hours at 4° C., western blotting
T2 construct: purchased Upstate Biotechnology #14-279
T2 sequence (P31749 whole entry): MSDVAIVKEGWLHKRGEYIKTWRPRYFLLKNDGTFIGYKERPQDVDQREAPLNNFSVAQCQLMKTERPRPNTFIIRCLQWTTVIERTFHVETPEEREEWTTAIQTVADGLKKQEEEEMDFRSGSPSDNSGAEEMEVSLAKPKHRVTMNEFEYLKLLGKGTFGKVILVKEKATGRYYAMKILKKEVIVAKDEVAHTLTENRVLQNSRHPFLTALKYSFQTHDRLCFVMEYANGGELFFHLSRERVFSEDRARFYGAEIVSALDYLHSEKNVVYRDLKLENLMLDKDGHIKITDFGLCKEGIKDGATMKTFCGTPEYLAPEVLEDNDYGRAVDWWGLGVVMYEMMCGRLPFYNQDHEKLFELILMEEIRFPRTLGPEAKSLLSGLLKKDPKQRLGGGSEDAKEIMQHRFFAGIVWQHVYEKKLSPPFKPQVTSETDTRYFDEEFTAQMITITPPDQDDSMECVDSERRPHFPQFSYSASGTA
Experimental: Lipid-protein pull down assay was performed for 10/24 peptide of TCL1.
Lipid-protein pull down assay was performed by using PIP Beads (PI (3,4,5) P3 Echelon Bioscience Incorporated). 10/24 NH2-AVTDHPDRLWAWEKF-COOH (SEQ ID NO: 1), and βC NH2-EKQHAWLPLTIE-COOH (SEQ ID NO: 22) as a control, were used. After treatment for 2 hours at 4° C. by using 50 ng of AKT kinase (unactivated, Upstate Biotechnology, #14-279), 25 μl of PIP Beads (PI (3,4,5) P3 Echelon Bioscience Incorporated) was added, then washed with fluid containing (10 mM Hepes, pH7.4, 0.25% NP-40, 140 mM NaCl), and western blotting was performed by using Akt antibody (Cell Signaling) (FIG. 8). […] Thus, this is considered to be the inhibition mechanism for Akt activation.

[4] = tested on: Akt in mouse QrSP-11 fibrosarcoma cells; assay: Inhibition of Akt phosphorylation activation in PDGF-stimulated QrSP-11 cells (western blotting); assay type: cell-based; conditions: 50 mM peptide for 16 hours, PDGF stimulation
Experimental: Inhibition effect on Akt activation of AKT phosphorylation (serine 473 residue, threonine 308 residue) of 10/24 peptide and control peptide in mouse QrSP-11 fibrosarcoma cells were examined.
QrSP-11 cells were mixed with 50 mM concentrations of peptide for 16 hours. Then the mixture was stimulated with PDGF (PDGF-AB, Sigma, 3226). The cells were lysed in the presence of phosphatase inhibitor, analyzed on SDS gels, and western blotting was performed by ECL (Amersham) with the use of various antibodies (Cell Signaling; anti-Akt #9272, anti-pThr 308 #9275L, and anti-pSer 473 #9271L). As shown in the figure, in the 10/24 peptide treated cells, phosphorylations of both serine 473 and threonine 308 were inhibited as shown at the right in the figure. That is, phosphorylation inhibition caused by 10/24 peptide was indicated by diluting the black bands at the right compared to the second and forth rows from the left in the figure.

Akt1 = assay: Co-immunoprecipitation binding test with Akt subtype Akt1; conditions: 293 cell lysate, peptide at 400 μM, anti Flag M2 immunoprecipitation, western blotting
Experimental: (§1) Binding test between 10/24 peptide and Akt subtype molecule: Akt1, Akt2, or Akt3, was performed by using co-immunoprecipitation assay.
(§2) The cell lysate overexpressed Akt kinase in 293 cells (ATCC) i.e., Akt1, Akt2 or Akt3 in pCMV6 was expressed in 293 cells (ATCC) by using calcium phosphate method, and the overexpressed cells were harvested, lysed, and pre-treated with Protein G/A agarose mixture (50% v/v, ProG/A, Pharmacia). Akt or a control peptide (βC) was added to the cell lysate at 400 μM, inoculated with ProG/A for 3 hours at 4° C., and was added anti Flag M2 antibody (Sigma). The resultant immune precipitant was washed, and then were identified the binding to Akt kinase by western blotting (anti-HA antibody, 3F10, Boehringer Mannheim). As shown in the figure, the 10/24 peptide bound to any of the three subtypes of molecules, Akt1, Akt2, and Akt3.

Akt3 = molecular target: T3, Akt3 (Homo sapiens, UniProt Q9Y243); assay: Co-immunoprecipitation binding test with Akt subtype Akt3; conditions: 293 cell lysate, peptide at 400 μM, anti Flag M2 immunoprecipitation, western blotting
T3 construct: expressed in transfected cells; host or cells: 293 cells (ATCC), calcium phosphate transfection, pCMV6 vector
T3 sequence (Q9Y243 whole entry, species assumed): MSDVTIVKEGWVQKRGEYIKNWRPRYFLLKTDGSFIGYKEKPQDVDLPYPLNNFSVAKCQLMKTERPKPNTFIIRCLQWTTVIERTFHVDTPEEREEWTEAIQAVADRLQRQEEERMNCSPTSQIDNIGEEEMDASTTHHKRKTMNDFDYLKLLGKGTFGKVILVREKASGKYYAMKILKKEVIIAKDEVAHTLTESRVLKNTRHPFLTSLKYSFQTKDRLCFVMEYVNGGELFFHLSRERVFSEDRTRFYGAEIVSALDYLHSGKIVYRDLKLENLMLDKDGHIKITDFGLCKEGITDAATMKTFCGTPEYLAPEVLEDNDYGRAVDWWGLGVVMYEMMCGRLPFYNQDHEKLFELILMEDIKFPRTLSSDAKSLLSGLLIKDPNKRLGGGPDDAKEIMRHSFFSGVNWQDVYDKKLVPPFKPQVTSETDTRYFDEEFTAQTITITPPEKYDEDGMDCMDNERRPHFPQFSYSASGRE
Experimental: as §1, §2

Akt2 [5] = molecular target: T1, Akt2; assay: Co-immunoprecipitation binding test with Akt subtype Akt2; set-up: expressed in transfected cells; host or cells: 293 cells (ATCC), calcium phosphate transfection, pCMV6 vector; conditions: 293 cell lysate, peptide at 400 μM, anti Flag M2 immunoprecipitation, western blotting
Experimental: as §1, §2

[6] = tested on: Mouse QrSP-11 fibrosarcoma cells transplanted to C57BL/6 mouse; assay: In vivo anti-tumor effect on transplanted tumor cells; conditions: injected directly into tumor, 2 μM 3 times a week per mouse, versus control peptide
Experimental: In vivo anti-tumor effect by 10/24 peptide with the use of the transplanted tumor cells was examined.
Mouse QrSP-11 fibrosarcoma cells was transplanted to abdominal wall of C57BL/6 mouse, and examined the inhibition ? effect on tumor growth by peptide. 10/24 peptide or control peptide was injected directly into tumor cells (2 μM was administered 3 times a week for each mouse, shown by arrows in the figure), the tumor diameters were measured and the volumes were calculated.

T4 cell lines = assay: Cell growth test by MTT (WST-8 reagent) assay; assay type: cell-based, human; conditions: T4 cell lines without stimulation, 0-50 μM, 48 hours, WST-8, absorbance at 450 nm
Experimental: Cell growth test was performed by using MTT assay. That is, in experiments of cell growth by using WST-8 reagent [2-(2-methoxy-4-nitrophenyl)-3-(4-nitrophenyl)-5-(2,4-disulfophenyl)-2H-tetrazolium, monosodium salt]
In this method, 10/24 peptide was pre-treated at 0-50 μM concentration in cell growth test by using T4 cell lines without stimulation, 48 hours later the growth potency was measured by using WST-8 reagent assay, the absorbance at 450 nm was measured by ELISA using a microplate reader (Model 550; BioRad, Tokyo, Japan).

[7] = tested on: AKT overexpressed in 293 cells; assay: Inhibition of activation and membrane translocation of AKT in 293 cells (confocal microscope); assay type: cell-based, human; conditions: PDGF-AB 10 minutes, compared with control peptides
Experimental: Inhibition effect for the activation and membrane translocation of AKT of 10/24 peptide were tested with the use of 293 cells (ATCC).
[…] of AKT was overexpressed in 293 cells (ATCC) with the use of FuGENE6 (Roche Diagnostics). Sixteen hours later the serum was eliminated, and the cells were stimulated with PDGF-AB (Sigma, #3226) for 10 minutes. The cells were fixed with 4% paraformaldehyde, stained with FITC-conjugated anti-HA antibody (12CA5, MBL) or phospho-Ser 473 antibody (587-F11, Cell Signaling), and observed under the confocal microscope (Nikon).
As shown in the FIG. 10, in the 10/24 treated cells (g-i), the inhibition of the membrane translocation and activation of AKT was identified compared with the control peptides (a-f) (around the cells glowed green or yellow as shown in d or f, while this effect was inhibited in the 10/24 peptide as shown in […] or i. See the figure). That is, from the results of the experiment, it was identified that the 10/24 peptide inhibits the activation at the same time as the translocating of AKT to the membrane in cells. AKT essentially translocates to the cell surface where it is activated, but in the 10/24 peptide treated cells, it was identified that the translocation to membrane and activation of AKT was inhibited.

[8] = tested on: Mouse QrSP-11 fibrosarcoma tumors of example 8; assay: Histological examination of peptide treated mouse tumor; assay type: in vivo
From the text: Experimental mouse tumors of example 8 were harvested on the day 9, and histologically examined by macroscopic appearance, hematoxylin-eosin (H&E) staining (an observing method for conditions of cell nucleus and the like), TUNEL (Tdt-mediated dUTP nick end labeling, #MK500, Takara) immunostaining (a histologically identifying method for the way of the atypical death of carcinoma i.e., apoptosis), and phospho Akt (Ser 473) monoclonal antibody (a method for determining 587F11, Cell Signaling, phosphorylation of AKT kinase, and observing the activation).

Akt kinase [9] = assay: Binding test by co-immunoprecipitation assay; conditions: lysate of human 293 cells overexpressing AKT kinase, incubated around 2 hours, western blotting
Experimental: In this method, AKT kinase was overexpressed in human 293 cells, and the harvested cell lysates was incubated with 10/24 peptide (NH2-AVTDHPDRLWAWEKF-COOH) (SEQ ID NO: 1) for around 2 hours. Further, the treated cell lysates were added agarose beads bound to the specific antibody against an epitope that was fused with Akt, and co-incubated for 2-3 hours. Then, molecules adhered in the cell lysates were immunoprecipitated with agarose beads bound to this antibody, and examined the binding to Akt kinase by using western blotting with specific antibody.

Recombinant Akt protein = assay: In vitro Akt kinase assay with GSK as substrate; assay type: biochemical; conditions: 200 μM peptide, reacted 2 hours, phosphorylation 4 minutes at 30° C., western blotting
Experimental: With the use of the GSK as substrate Akt kinase assay was performed, and inhibition test for Akt activation with 10/24 peptide was performed.
In vitro Akt kinase assay was performed by using kit (Cell Signaling, #9840). Recombinant Akt protein extracted from mammalian cells was mixed with 200 μM concentrations of peptide, and reacted for 2 hours. Phosphorylation was performed for 4 minutes at 30° C. After analyzing the reaction mixture on SDS gels, GSK phosphorylation was determined by western blotting.

Chain of Akt kinase (Homo sapiens, UniProt P31749) (P31749 whole entry): as the sequence (P31749 whole entry) above

- GSK-3α phosphorylation and Akt Ser-473 phosphorylation (Akt kinase [1]): did not affect
- binding to Akt in β-Gal lifting assay and quantitative liquid β-Gal assay (Akt2 [2]): dramatic decrease
Substance: D16G TCL1: amino acid-substituted mutant form of TCL1 (D16G)
- Akt kinase activity (Akt kinase [1]): did not affect the Akt kinase activity

- binding to Akt in β-Gal lifting assay and quantitative liquid β-Gal assay (Akt2 [2]): dramatic decrease
Substance: I74V: amino acid-substituted mutant form of TCL1 (I74V)

- mode of inhibition of the binding of Phosphoinositide (PI (3,4,5) P3) to Akt kinase (AKT kinase (unactivated)): competitively inhibits
- binding of PIP Beads (PI (3,4,5) P3) to AKT (AKT kinase (unactivated)): inhibited in a dose-dependent manner
- binding to Akt1 (Akt1): bound
- binding to Akt3 (Akt3): bound
- binding to Akt2 (Akt2 [5]): bound
- binding to Akt kinase (Akt kinase [9]): specifically binds
- phosphorylation potency of Akt for GSK peptide (Akt kinase activity) (Recombinant Akt protein): effectively inhibited
Substance: NH2-AVTDHPDRLWAWEKF-COOH (H-AVTDHPDRLWAWEKF-OH; listed as Homo sapiens) [10/24 peptide, amino acid residue 10-24 of human TCL1]
- apoptosis ([3]; T4 cell lines without stimulation, 0-30 μM, 48 hours, compared with control peptide): enhance apoptosis
- apoptosis with myr-AKT (constitutively activated AKT) overexpression ([3]; T4 cells, AKT dependency of the effect): apoptosis was inhibited
- phosphorylation of Akt serine 473 [4]: inhibited
- phosphorylation of Akt threonine 308 [4]: inhibited
- tumor growth (tumor volume) [6]: tumor growth was effectively inhibited
- cell growth associated with AKT activation (T4 cell lines): specifically inhibits cell growth
- membrane translocation of AKT ([7]; anti-HA staining): inhibited
- activation of AKT (phospho-Ser 473 staining) [7]: inhibited
- Akt activation (phospho Akt Ser 473 staining) ([8]; tumors harvested on day 9): inhibition of Akt activation
- apoptosis by H&E staining ([8]; tumors harvested on day 9): increased apoptosis
- cell apoptosis by TUNEL staining ([8]; tumors harvested on day 9): increased cell apoptosis
- tumor size by macroscopic appearance ([8]; tumors harvested on day 9, compared to the control): reduction in tumor size was clearly observed

- binding of PIP Beads (PI (3,4,5) P3) to AKT (AKT kinase (unactivated)): did not inhibit at all
Substance: NH2-EKQHAWLPLTIE-COOH (H-EKQHAWLPLTIE-OH; listed as Homo sapiens) [βC, reference compound]

- β-Gal lifting assay category of interaction with Akt2 (Akt2 [2]; blue-color intensity): ++
Substance: Wild-type TCL1: human TCL1 protooncogene protein, co-activator of Akt
- Akt kinase activity (Akt kinase [1]): increase in Akt kinase activity
